From patent US9981972B2, “N-hydroxy bicyclic hydantoin carbamates as tools for identification of serine hydrolase targets” (ABIDE THERAPEUTICS, INC., priority 2014, dated 2018)
Entries after “also recorded” stand apart in the source; their conditions may differ.

Legend:
ABHD4 = biological target: T1, ABHD4 (Homo sapiens, UniProt Q8TB40); test: Gel-based competitive ABPP, recombinant enzyme in transfected HEK293T cell lysates; assay type: biochemical; design: myc-his; expressed in transfected cells; host or cells: HEK293T, transient transfection, pcDNA3.1/myc-his; lysate used in vitro; conditions: competitive ABPP with FP-Rh, 30 min 37° C.
T1 sequence (Q8TB40 1-342): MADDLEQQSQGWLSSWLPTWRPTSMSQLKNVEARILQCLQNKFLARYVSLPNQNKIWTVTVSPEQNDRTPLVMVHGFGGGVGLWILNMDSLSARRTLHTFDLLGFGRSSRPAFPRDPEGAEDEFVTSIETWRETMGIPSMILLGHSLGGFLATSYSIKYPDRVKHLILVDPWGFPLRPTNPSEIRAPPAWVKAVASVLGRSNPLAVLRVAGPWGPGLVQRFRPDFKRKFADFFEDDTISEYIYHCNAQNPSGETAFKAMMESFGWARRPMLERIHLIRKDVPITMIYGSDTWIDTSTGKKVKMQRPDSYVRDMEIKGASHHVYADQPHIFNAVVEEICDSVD
Experimental: (§1) HEK293T cells were seeded at 2×10^5 per well on 6 well plates and grown for 48 h. They were then transfected with mABHD3 (pCMV-Sport6), hABHD4 (pcDNA3.1/myc-his), hPPT1 (pCMV6-XL5), or hPPT1 S115A (pCMV6-XL5), by incubating 0.5 μg of DNA with 3 μL of PEI MAX (1 mg/mL, Polysciences, Inc) in serum-free DMEM for 30 min, then adding them to cells. After 48 h cells were either treated with compound in situ, as described above, or harvested for in vitro studies. The […] PPT1 mutation was introduced using QuikChange II Site Directed Mutagenesis Kit (Agilent) with the following primers: […]
Human ABHD3 and ABHD4 were recombinantly expressed by transient transfection in HEK293T cells, and the cell lysates were combined to provide a convenient assay for monitor inhibition of both enzymes by gel-based ABPP (see FIG. 8A). […]

PPT1 (wild type, S115A) [1] = test: Labeling of recombinant PPT1 by probes (gel-based ABPP, isoTOP-ABPP); assay type: biochemical, human; conditions: transfected HEK293T lysates, CuAAC to azide-Rh, PNGaseF
Experimental: as §1
(§2) Whole cell lysates (500 μL, 1.5 mg/mL) of hPPT1 transfected HEK239Ts were processed for MS analysis using the previously described isoTOP-ABPP protocol (Weerapana et al., Nature 468, 790-795, 2010). In brief, for analysis of Compound 39-modified peptides, proteomes were split into two fractions, to which Compound 39 (5 μM, 60 min) or DMSO were added. […] MS1 peaks for probe-labeled quantified peptides were extracted with Xcalibur Qual Browser 2.2 (Thermo Scientific). […]
(§3) HEK293T cells were transfected with wild type and an S115A mutant of PPT1, lysed, and treated with Compound 39 followed by CuAAC conjugation to an azide-Rh tag, PNGaseF treatment, and analysis by SDS-PAGE. […] S115 was identified as the site of Compound 39 labeling on PPT1 using a quantitative MS method termed isoTOP-ABPP. […]

PPT1 (wild type, S115A) [2] = biological target: T2, PPT1 (wild type, S115A) (Homo sapiens, UniProt P50897); test: as above; assay type: biochemical; conditions: transfected HEK293T cell lysates, gel-based ABPP
T2 construct: expressed in transfected cells; host or cells: HEK293T
Experimental: as §1, §2, §3

[3] = tested on: SHs in PC3 cell proteomes; test: Probe-versus-probe ABPP-SILAC, PC3 proteomes; assay type: biochemical, human; conditions: Compound 39 5 μM, 1 h versus FP-biotin 2.5 μM
Experimental: Isotopically heavy- and light-labeled PC3 cells were treated with Compound 37 (1 μM) or DMSO for 4 h, respectively, lysed, and then treated Compound 39 (5 μM, 1 h). […] Among the handful of additional SH targets of Compound 37 were ABHD6 and PLA2G7, which were expected based on our ABPP-SILAC studies with FP-biotin (see FIG. 9), and protein-palmitoyl thioesterase 1 (PPT1), which was inhibited by more than 90%. […] Accordingly, PPT1 was not detected in our previous ABPP-SILAC studies with FP-biotin (see FIG. 9). The selective enrichment of PPT1 by Compound 39 was confirmed by performing a probe-versus-probe ABPP-SILAC study, where heavy and light PC3 proteomes were treated with FP-biotin (2.5 μM, 1 h) and Compound 39 (5 μM, 1 h), respectively. PPT1, along with two additional SHs LIPA and DDHD2, were preferentially enriched by Compound 39 over FP-biotin, while most of the other SHs were more strongly enriched by FP-biotin (see FIG. 13). A handful of SHs corresponding mostly to enzymes that were identified in our ABPP-SILAC studies as targets of Compound 37 (see FIGS. 9 and 12), were equivalently enriched by Compound 39 and FP-biotin (see FIG. 13).

T2 sequence (P50897 28-306 S115A): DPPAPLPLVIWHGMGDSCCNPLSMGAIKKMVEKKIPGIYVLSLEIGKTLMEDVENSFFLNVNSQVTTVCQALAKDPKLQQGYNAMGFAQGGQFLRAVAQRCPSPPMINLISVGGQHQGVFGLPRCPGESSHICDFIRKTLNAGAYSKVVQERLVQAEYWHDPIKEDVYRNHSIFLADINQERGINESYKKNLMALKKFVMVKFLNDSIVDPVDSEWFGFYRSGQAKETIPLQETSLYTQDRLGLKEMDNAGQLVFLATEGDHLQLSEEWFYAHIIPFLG

probe reactivity with recombinant hPPT1 (PPT1 (wild type, S115A) [2]): reacts; also recorded: reacted with PPT1
Structure (SMILES): C#CCOc1ccc(N2CCN(C(=O)ON3C(=O)C4CN(Cc5ccc(Oc6ccccc6)cc5)CCN4C3=O)CC2)cc1 (stereo not shown) [Compound 39, 1,3-dioxo-7-(4-phenoxybenzyl)hexahydroimidazo[1,5-a]pyrazin-2(3H)-yl 4-(4-(prop-2-yn-1-yloxy)phenyl)piperazine-1-carboxylate]
inhibition of ABHD4 in transfected HEK293T cell proteome (ABHD4): inhibited ABHD4 in transfected HEK293T cell proteome in a concentration-dependent manner
labeling of wild type PPT1 versus S115A mutant (PPT1 (wild type, S115A) [1]): labels recombinant wild type PPT1, but not the catalytic serine mutant (S115A); also recorded: strong labeling of wild-type PPT1, but not the S115A mutant
SHs preferentially enriched by Compound 39 over FP-biotin [3]: PPT1 and LIPA and DDHD2
